Among the data in US7446210B2, “Factor Xa compounds” (Janssen Pharmaceutica N.V., priority 2004, dated 2008) are Ki values, retold here.

One test deals with T1, human trypsin.
T1 construct: Purified human trypsin was diluted into assay buffer to a concentration of 10 nM
Briefly: In vitro inhibition of purified enzymes, Ki determination: trypsin (hydrolysis of S-2765). The format is biochemical. The following applies: substrate S-2765, 37° C., pH 7.5. The source says: (§1) Reagents: All buffer salts were obtained from Sigma Chemical Company (St. Louis, Mo.), and were of the highest purity available. The enzyme substrate, S-2765 (Z-D-Arg-Gly-Arg-p-nitroanilide) was obtained from DiaPharma (West Chester, Ohio). N-succinyl-Ala-Ala-Pro-Arg-p-nitroanilide (BACHEM L-1720) was obtained from BACHEM (King of Prussia, Pa.). N-p-Tosyl-Gly-Pro-Lys-p-nitroanilide (Sigma T6140), N-succinyl-Ala-Ala-Pro-Phe-p-nitroanilide (Sigma S7388), N-CBZ-Val-Gly-Arg-p-nitroanilide (Sigma C7271) was obtained from Sigma and N-succinyl-Ala-Ala-Pro-Val-p-nitroanilide (BACHEM L-1770) was obtained from BACHEM (King of Prussia, Pa.).
(§2) Human α-thrombin and human Factor Xa were obtained from Enzyme Research Laboratories (South Bend, Ind.). Human trypsin was obtained from Calbiochem (La Jolla, Calif.). Human plasmin was obtained from Enzyme Research Laboratories (South Bend, Ind.). Bovine a-chymotrypsin (Sigma C4129) and human kidney cell urokinase (Sigma U5004) was obtained from Sigma. Human leukocyte elastase was obtained from Elastin Products (Pacific, Mo.).
(§3) Ki Determinations: All assays are based on the ability of the test compound to inhibit the enzyme-catalyzed hydrolysis of a peptide p-nitroanilide substrate. In a typical Ki determination, substrate is prepared in DMSO, and diluted into an assay buffer consisting of 50 mM HEPES, pH 7.5, 200 mM NaCl, 0.05% n-octyl b-d-glucopyranoside. The final concentrations for each of the substrates are listed below. In general, substrate concentrations are lower than the experimentally determined value for Km. Test compounds are prepared as 10 mM solutions in DMSO. Dilutions are prepared in DMSO yielding 7 final concentrations encompassing a 200-fold concentration range. Enzyme solutions are prepared at the concentrations listed below in assay buffer.
(§4) Reactions were initiated by the addition of a […] aliquot of enzyme and the absorbance increase at 405 nm is recorded for 15 minutes. Data corresponding to less than 10% of the total substrate hydrolysis were used in the calculations. The ratio of the velocity (rate of change in absorbance as a function of time) for a sample containing no test compound is divided by the velocity of a sample containing test compound, and is plotted as a function of test compound concentration. The data are fit to a linear regression, and the value of the slope of the line calculated. The inverse of the slope is the experimentally determined apparent Ki value (Ki app). The Ki is calculated from the Ki app using the Ki factor specific for the assay, where Ki=Ki app×Ki factor, or Ki=Ki app×(1/ (1+[S]/Km)).
Trypsin: Trypsin activity was assessed as the ability to hydrolyze the substrate S-2765 (Z-D-Arg-Gly-Arg-p-nitroanilide, Km=61 mM, Ki factor=0.50). Substrate solutions were prepared at a concentration of 64 mM in assay buffer. Final DMSO concentration was 3.3%. Purified human trypsin was diluted into assay buffer to a concentration of 10 nM. Final reagent concentrations were: [Trypsin]=0.33 nM, [S-2765]=60 mM.

The target in another test is T2, human α-thrombin (Homo sapiens, UniProt P00734).
T2 construct: Purified human a-thrombin was diluted into assay buffer; purchased Enzyme Research Laboratories (South Bend, Ind.)
Briefly: In vitro inhibition of purified enzymes, Ki determination: thrombin (hydrolysis of N-succinyl-Ala-Ala-Pro-Arg-p-nitroanilide). Type of test: biochemical. The settings on record: substrate N-succinyl-Ala-Ala-Pro-Arg-p-nitroanilide, 37° C., pH 7.5.
Source text: as §1, §2, §3, §4
Thrombin: Thrombin activity was assessed as the ability to hydrolyze the substrate N-succinyl-Ala-Ala-Pro-Arg-p-nitroanilide (Km=320 mM, Ki factor=0.76). Substrate solutions were prepared at a concentration of 107 mM in assay buffer. Final DMSO concentration was 4.3%. Purified human a-thrombin was diluted into assay buffer to a concentration of 33 nM. Final reagent concentrations were: [thrombin]=1.1 nM, [substrate N-succinyl-Ala-Ala-Pro-Arg-p-nitroanilide]=100 mM.

The target of test [1] is T3, Factor Xa (Homo sapiens, UniProt P00742). In words: In vitro inhibition of purified enzymes, Ki determination: Factor Xa (hydrolysis of S-2765). The format is biochemical. The arrangement: purchased Enzyme Research Laboratories (South Bend, Ind.). The following applies: purified activated human Factor X, substrate S-2765, 37° C., pH 7.5; read-out: KI FXa.
Source text: as §1, §2, §3, §4
Substrate solutions were prepared at a concentration of 107 mM in assay buffer. Final DMSO concentration was 3.3%. Purified activated human Factor X was diluted into assay buffer to a concentration of 16 nM. Final reagent concentrations were: [Factor Xa]=0.53 nM, [S-2765]=100 mM.

Test [2] addresses T3, Factor Xa. The following applies: background statement; cited from earlier work.

Where a name gives a salt, the structure may show the parent alone. Read-outs that look alike come from different tables or passages of the source.

T3 sequence (P00742 235-488 limits assumed): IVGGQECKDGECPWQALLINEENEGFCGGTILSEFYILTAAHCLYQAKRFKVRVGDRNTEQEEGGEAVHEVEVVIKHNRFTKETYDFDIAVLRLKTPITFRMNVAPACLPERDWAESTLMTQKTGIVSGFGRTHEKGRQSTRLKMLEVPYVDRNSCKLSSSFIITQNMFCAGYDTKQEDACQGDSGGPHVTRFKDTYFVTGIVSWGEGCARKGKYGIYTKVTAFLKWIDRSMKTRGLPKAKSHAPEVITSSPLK
T3 sequence (P00742 41-179 partner limits assumed): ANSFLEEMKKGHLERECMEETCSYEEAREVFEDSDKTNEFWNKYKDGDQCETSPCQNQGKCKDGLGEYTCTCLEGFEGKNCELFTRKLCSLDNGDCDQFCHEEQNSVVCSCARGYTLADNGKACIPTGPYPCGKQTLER

With `CN(C)CCCN(c1ccncc1)c1ccc(-c2ccc3c(C(N)=O)nn(-c4ccc5onc(N)c5c4)c3c2F)c(F)c1` [Example 59, 1-(3-Amino-benzo[d]isoxazol-5-yl)-6-{4-[(3-dimethylamino-propyl)-pyridin-4-yl-amino]-2-fluoro-phenyl}-7-fluoro-1H-indazole-3-carboxamide dimesylate salt], the inhibition constant (Ki) on human trypsin is above 10000 nM; at human α-thrombin it was above 15200 nM; on Factor Xa [1] it was 5 nM.
In the case of `COc1cccc(-n2nc(C)c3ccc(-c4ccc(N5CCCCC5=O)cc4)c(F)c32)c1` [Example 4, 1-{4-[7-fluoro-1-(3methoxy-phenyl)-3-methyl-1H-indazol-6-yl]-phenyl}-piperidin-2-one], the inhibitory constant (Ki) at Factor Xa [1] came out at 660 nM.
`Cc1nn(-c2cccc(CN)c2)c2c(F)c(-c3ccc(N4CCCCC4=O)cc3)ccc12` [Example 6, 1-{4-[1-(3-Aminomethyl-phenyl)7-fluoro-1-3-methyl-1H-indazol-6-yl]-phenyl}-piperidin-2-one]: the inhibitory constant (Ki) on human trypsin was above 10000 nM; at human α-thrombin, above 15200 nM; on Factor Xa [1] it was 120 nM.
On the same counts, the results for `CN(C)Cc1cnccc1-c1ccc(-c2ccc3c(C(N)=O)nn(-c4ccc5onc(N)c5c4)c3c2F)c(F)c1` [Example 66, 1-(3-Amino-benzo[d]isoxazol-5-yl)-6-[4-(3-dimethylaminomethyl-pyridin-4-yl)-2-fluoro-phenyl]-7-fluoro-1H-indazole-3-carboxylic acid amide] are above 10000 nM, above 15200 nM and 2 nM.
Consider `Cc1nn(-c2cccc(CN)c2)c2c(F)c(-c3ccc(N4CCCC4=O)cc3)ccc12` [Example 7, 1-{4-[1-(3-Aminomethyl-phenyl)-7-fluoro-1-3-methyl-1H-indazol-6-yl]-phenyl}-pyrolidin-2-one], for which the inhibition constant (Ki) on human trypsin was 700 nM; at human α-thrombin, above 15200 nM; at Factor Xa [1] it was 220 nM.
On the same counts, the results for `Cc1nn(-c2ccc3ccnc(N)c3c2)c2c(F)c(-c3ccc(-c4ccccc4S(C)(=O)=O)cc3F)ccc12` [Example 93, 7-[7-Fluoro-6-(3-fluoro-2′-methanesulfonyl-biphenyl-4-yl)-3-methyl-indazol-1-yl]-isoquinolin-1-ylamine] are above 10000 nM, above 15200 nM and 46 nM.
On the same counts, the results for `NC(=O)c1nn(-c2ccc3onc(N)c3c2)c2c(F)c(-c3ccc(N4CCOCC4=O)cn3)ccc12` [Example 43, 1-(3-Amino-benzo[d]isoxazol-5-yl)-7-fluoro-6-[5-(3-oxo-morpholin-4-yl)-pyridin-2-yl]-1H-indazole-3-carboxylic acid amide; methanesulfonic acid salt] are above 10000 nM, above 15200 nM and 6 nM.
On the same counts, the results for `Cc1nn(-c2cccc(CN)c2)c2c(F)c(-c3ccc(-c4ccccc4S(C)(=O)=O)cc3F)ccc12` [Example 82, 3-[7-Fluoro-6-(3-fluoro-2′-methanesulfonyl-biphenyl-4-yl)-3-methyl-indazol-1-yl]-benzylamine] are 1500 nM, above 15200 nM and 45 nM.
For `Cc1nn(-c2ccc3onc(N)c3c2)c2c(F)c(-c3ccc(N4CCCCC4=O)cc3)ccc12` [Example 86, 1-{4-[1-(3-Amino-benzo[d]isoxazol-5-yl)-7-fluoro-3-methyl-1H-indazol-6-yl]-phenyl}-piperidin-2-one], the Ki at human trypsin is above 10000 nM; at human α-thrombin, above 15200 nM; at Factor Xa [1], 48 nM.
For `Cc1nn(-c2cccc(C(=N)N)c2)c2c(F)c(-c3ccc(N4CCCCC4=O)cc3F)ccc12` [Example 75, 3-{7-Fluoro-6-[2-fluoro-4-(2-oxo-piperidin-1-yl)-phenyl]-3-methyl-indazol-1-yl}-benzamidine] the same measures were 140 nM, 1600 nM and 1 nM.
With `Cc1nn(-c2cccc(CN)c2)c2c(F)c(-c3ccc(N(C)c4ccncc4)cc3F)ccc12` [Example 35], the figures for the inhibition constant (Ki) at human trypsin, on human α-thrombin and on Factor Xa [1] were 2900 nM, above 15200 nM and 33 nM, respectively.
As to `O=C1CCCCN1c1ccc(-c2ccc3c(C(F)(F)F)nn(-c4cccc(Cl)c4)c3c2F)c(F)c1` [Example 95, 1-{4-[1-(3-Chloro-phenyl)-7-fluoro-3-trifluoromethyl-1H-indazol-6-yl]-3-fluoro-phenyl}-piperidin-2-one], the Ki was above 10000 nM on human trypsin, above 15200 nM at human α-thrombin and 340 nM at Factor Xa [1].
Regarding antistasin [ATS], the Ki at Factor Xa [2] was 0.05 nM.
With `Cc1nn(-c2ccc3onc(N)c3c2)c2c(F)c(-c3ccc(-n4ccccc4=O)cc3F)ccc12` [Example 25, 1-{4-[1-(3-Amino-benzo[a]isoxazol-5-yl)-7-fluoro-3-methyl-1H-indazol-6-yl]-3-fluoro-phenyl}-1H-pyridin-2-one], the Ki on human trypsin is above 10000 nM; on human α-thrombin, above 15200 nM; at Factor Xa [1], 40 nM.
For `Cc1nn(-c2cccc(CN)c2)c2c(F)c(-c3ccc(C#Cc4ccc5nc(N)sc5c4)cc3)ccc12` [Example 15, 6{4-1-(3-Aminomethyl-phenyl)-7-fluoro-3-methyl-1H-indazol]-phenylethynyl-benzothiazol-2-ylamine] the same measures were 1590 nM, above 15200 nM and 2820 nM.
For “tick anticoagulant peptide (YNRLCIKPRDWIDECDSNEGGERAYFRNGKGGCDSFWICPEDHTGADYYSSYRDCFNACI; UniProt P17726 1-60, looked up) [TAP]”, in the test with Factor Xa [2], the Ki was around 0.5 nM.
